SMILES | melting point [°C]
CS(=O)(=O)Nc1cc2oc(O)cc(=O)c2cc1Oc1ccccc1 | > 250
CC(=O)OCCc1ccc(C2=NNC(=O)CC2)cc1 | 94 to 96
Cc1ccc(CC(=S)N2CCOCC2)cc1 | 182 to 185
CCC1CC2C3CCC4=CC(=O)CCC4C3CCC2(C)C1OC(=O)CBr (stereo not drawn) | 118 to 120
Nc1ccc(-c2ccc(-c3ccc(N)cc3)o2)cc1 | 213 to 216
COc1cc2c(-c3cc4cc(F)cnc4[nH]3)cn(CCN3CCOCC3)c2cc1OC | 205 to 210
Cc1cc(Nc2ccc(C#N)cc2)c([N+](=O)[O-])c(C)n1 | 171 to 172
CN1CCN(Nc2cc(Cl)ccc2[N+](=O)[O-])CC1 | 108
Fc1ccc(-c2cc3ccccc3n2-c2ccccc2)cc1 | 126 to 128
COc1ccc(Nc2nc(-c3ccc(-c4ccccc4)cc3)cs2)nc1 | 212 to 213
O=c1[nH]c2c3ccccc3ccc2n(Cc2ccccc2)c1=O | 308
Cn1cc(-c2cccc(Br)c2)c(=O)c(-c2ccccc2Cl)c1 | 177 to 179
Cn1cnc2ccc(N/C(=C3\C(=O)Nc4ccccc43)c3ccccc3)cc21 | 163 to 165
CCOC(=O)c1cc2nc(C(F)(F)F)ccc2n1Cc1ccncc1 | 130 to 131
CCCn1ncc2c(=O)[nH]c(-c3cc(Br)ccc3OCC)nc21 | 172 to 173
c1cnc(C2CNCC(c3ncccn3)N2)nc1 (stereo not drawn) | 159 to 161
CCC(CC)N(Cc1ccc(C#N)cc1F)S(=O)(=O)c1ccc(F)cc1 | 102 to 104
O=C1c2cccnc2-c2cccnc21 | 158 to 159
CN1C2CCC1CC(=NO)C2 | 140 to 142
COc1cccc(CNC(=O)c2nc3cccc(COCc4ccc(C(=O)O)cc4)c3c(=O)[nH]2)c1 | 230 to 232
Cc1nccn1N=Cc1ccc(N(C)C)cc1 | 166 to 167

SMILES | melting point [°C]
NC(Cc1nc2ccccc2nc1CP(=O)(O)O)C(=O)O (stereo not drawn) | 174
Oc1c(F)cc(Cn2cnnc2S)cc1F | 184 to 185
CN1C(=O)C(C(=O)Nc2ccccc2)c2cc3ccccc3cc2S1(=O)=O (stereo not drawn) | 188 to 190
Nc1c(Cl)cc(-c2ccccc2)cc1Cl | 112 to 113
N#Cc1cc(-c2ccoc2)c2ccc(OCc3cccc(-c4ccccc4)n3)cc2c1 | 131 to 133
O=C(Nc1cccc2ccccc12)N[C@H]1C[C@H](C(=O)O)Nc2cc(Cl)cc(Cl)c21 (relative stereo) | 241 to 242
O=c1[nH]ncn1N=Cc1cccnc1 | 264 to 265
O=c1[nH]c(=Cc2ccc(OCc3ccccc3)cn2)c(=O)[nH]c1=Cc1cccc(Cl)c1 | 236 to 237
O=[N+]([O-])c1cc(Cl)c([N+](=O)[O-])c(Cl)c1 | 109 to 112
COc1cc(OC)c2c(=O)cc(-c3ccccc3)oc2c1 | 147 to 149
Cn1c(C(F)(F)F)cc(=O)n(-c2cc(Oc3ccc[nH]c3=O)c(Cl)cc2F)c1=O | 181
CN1CCN(c2ncnc3oc(-c4ccc([N+](=O)[O-])cc4)c(-c4ccc(F)cc4)c23)CC1 | > 250
O=C(C#Cc1ccc(CCN2CCCC2)cc1)Nc1ccc(Cl)cc1 | 153 to 154
C=C(F)C(=O)Oc1c(Cl)c(Cl)c(Cl)c(Cl)c1Cl | 90 to 92
COc1cc(OC)c(-c2cccs2)cc1/C=C/C(=O)c1ccc(S(=O)(=O)Nc2cc(C)on2)cc1 | 202 to 203
CC(C)OC(=O)Nc1ccc(O)c(Cl)c1 | 89 to 90
CC(C)=CCOc1ccc2c(=O)c3ccccc3oc2c1C(=O)C=Cc1ccccc1 | 116 to 118
Brc1c[nH]nc1-c1ccccc1 | 114 to 116
CCN(CC)C(=O)c1cc(-c2cccs2)c2occc2c1 | 64
S=C1CN=C(c2ccccc2)c2ccsc2N1 | 208 to 210
COc1ccc(-c2cnc3cc4cnn(CC(=O)O)c4cc3n2)cc1F | > 260

SMILES | melting point [°C]
CC(C)C(=O)Nc1ccoc1 | 120
COc1cc2c(cc1O)CC(C)(C)NC2 | 170 to 173
C=CCOc1cc(F)c(C#N)c(OC(C(=O)OC)c2ccccc2C)c1 (racemic) | 100 to 102
CS(=O)(=O)c1ccc(-c2ccc3cnc(Nc4ccc(N5CCCCC5)cc4)nn23)cc1 | 204 to 209
Nc1c(-c2ccc(C(F)(F)F)cc2)nc2ccc(F)cc2c1C(=O)O | 260 to 262
O=c1cc(-c2ccccc2)oc2cc(OCCn3ccnc3)ccc12 | 155 to 159
COc1cccc(Nc2ncc(C(=O)O)c(=O)[nH]2)c1 | 247 to 249
O=C(Nc1ccc2cc(CN3CCCCC3)ccc2c1)c1ccc(-c2ccc(Cl)cc2)nc1 | 228 to 229
CC(=O)O[C@H]1CS[C@H](C(=O)O)O1 (relative stereo) | 111
O=C(O)c1ccc2c(c1)C(=Cc1ccccc1)OC2=O | 261
C[C@H](CO)Nc1cc(-n2cccn2)nc(-c2cccs2)n1 | 136 to 137
C[C@H](NC(=O)C[C@@H](CCBr)c1ccc(F)cc1)c1ccccc1 | 156 to 158
FC(F)(F)c1cccc(N2CCC(N=Cc3ccc[nH]3)=N2)c1 | 144 to 145
O=C(O)Cc1n[nH]c2c(=O)[nH]c3cc(Cl)ccc3c(=O)c12 | 297 to 300
CCOC(=O)Cn1c(=O)c2cc(CBr)ccc2n(Cc2ccc(Cl)c(Cl)c2)c1=O | 128 to 129
Cn1c(-c2ccc(-c3ccccn3)cc2)c(C(=O)O)c(=O)n1-c1ccc(C#N)cc1 | 155 to 166
COC(=O)C(=O)c1ccc(OCCOc2ccc(OC)cc2)cc1 | 114 to 115
CC(C)(Cl)c1cc(C(C)(C)Cl)cc(C(C)(C)Cl)c1 | 64
CC(=O)Oc1cccc2c(-c3ccccc3)c3cccc(OC(C)=O)c3c(OC(C)=O)c12 | 193 to 194

The remaining lines, values ahead:

melting point [°C] | SMILES
277 to 281 | CCCn1cc2c(C3C(=O)Nc4ccc(Br)cc43)nc(NCc3cccnc3)nc2n1 (stereo not drawn)
132 | CN(C(=O)[C@H]1CC[C@@H](c2ccccc2)N1C(=O)OC(C)(C)C)c1ccccc1 (racemic)
118 to 121 | CCOC(=O)c1ccc(NC(C)=O)cc1C(=O)OCC
110 to 112 | COC(=O)CS(=O)(=O)N1CC=C(c2ccc(Br)c(C)c2)CC1
160 to 162 | CCc1ccc(C(=O)NCc2ccc3c(c2)C(=O)N([C@@]2(C)CCC(=O)NC2=O)C3=O)cc1
> 260 | O=C1COCC2=C1C(c1ccc(F)c(I)c1)C1=C(CCS1(=O)=O)N2 (stereo not drawn)
97 | COc1cc(C(=O)N[C@@H]2c3cc(OC(F)(F)F)ccc3OC(C)(C)[C@H]2O)c([N+](=O)[O-])cc1OC
92 to 94 | CC(CC(=O)O)c1ccc(O)cc1O (stereo not drawn)
140 to 142 | CCc1cccc2c3c([nH]c12)C(CC)(CC(=O)O)CCC3c1ccccc1 (stereo not drawn)
262 | O=C(O)c1ccc2cc(-c3ccc(CCCO)c(C45CC6CC(CC(C6)C4)C5)c3)ccc2c1
100 to 102 | CCCCCCOc1ccc2[nH]c(SC(C)(C(=O)O)c3ccccc3)cc2c1 (stereo not drawn)
212 to 217 | CCn1cc(C(=O)O)c(=O)c2cc(F)c(N3CCC(C(C)N)C3)c(F)c21 (stereo not drawn)
160 to 163 | CCCCCCN(C[C@H]1CC[C@H](CN(CCCCCC)C(=O)Nc2ccc(N(C)C)cc2)CC1)C(=O)Nc1ccc(N(C)C)cc1
123 to 125 | O=S(=O)(c1ccc(Cl)cc1)N(Cc1ccc(OC2CCOCC2)nc1)C1CCOCC1
111 to 113 | COc1ccc(-n2nc(C(F)(F)F)cc2OCN2C(=O)c3c(C(C)C)cc(OC)cc3S2(=O)=O)cc1
115 to 117 | O=c1ccc(-c2c(-c3ccccc3)nn3ccccc23)nn1C1CCCCC1
211 to 213 | COC(=O)Nc1nc2cc(SCC3CC3(Cl)Cl)ccc2[nH]1 (stereo not drawn)
150 to 154 | COc1ccccc1NC(=O)Nc1nc(Nc2ccccc2-c2ccccc2)nc(N2CCCCC2C(=O)O)n1 (stereo not drawn)
126 to 129 | CCCCOC(=O)n1nc(-c2cccc(Br)c2)ccc1=O

melting point [°C] | SMILES
154 to 155 | CCCCCCc1ccc(O)c(C(=O)Nc2ccc([N+](=O)[O-])cc2)c1
173 to 176 | CC(CCCC(C)(O)CO)C1CCC2C3CC=C4CC(O)CCC4(C)C3CCC12C (stereo not drawn)
56.5 | CS(=O)(=O)[C@H]1CN(Cc2ccccc2)C[C@@H]1S(C)(=O)=O
71 to 72 | OC1(c2ccccc2)CCN(CCN2CCN(Cc3cc(C(F)(F)F)cc(C(F)(F)F)c3)CC2c2ccc(Cl)c(Cl)c2)CC1 (stereo not drawn)
82 to 84 | COC(=O)NNc1cc(C)cc2c1OC(C)C2 (stereo not drawn)
148 to 150 | CC(C)(C)C1=CC(=CC(=O)O)C=C(C(C)(C)C)C1=O
135 to 136 | O=C(NC[C@H]1CN(c2ccc(C3C=CS(=O)(=O)CC3)cc2)C(=O)O1)C(F)F (stereo partly drawn)
217 to 218 | N#CN=C(Cc1ccc2c(c1)Nc1nccnc1S2)NCCCC(=O)O
135 | CCOC(=O)/C=C1\CCOc2ccc([N+](=O)[O-])cc21
138 to 139 | CCC(CC)n1nc2c(C(F)(F)F)cccc2c1-c1ccc(OC)cc1OC
130 to 134 | CC1(C)Oc2ccc([N+](=O)[O-])cc2C(Br)C1Br (stereo not drawn)
106 to 107 | CCC1C(=O)CCC(Cc2ccc(OC)cc2)(Cc2ccc(OC)cc2)C1C (stereo not drawn)
114 to 118 | CCN1C(=O)C(C)(C)C(=O)N(C)c2cc(CN(CCn3ccc4oc(C)cc4c3=O)Cc3cccnc3C#N)ccc21
113 to 114 | COC(=O)C1CN(C(=O)c2cc(OC)c(OC)c(OC)c2)CCN1 (stereo not drawn)
154 to 156 | COc1cc(OC)c(C(=O)CCCCCl)cc1NC(=O)Nc1ccc(C(F)(F)F)cc1
78 to 79 | Cc1ccc([C@@H](O)[C@@H]2[C@@H](C)CCCC2(C)C)cc1
122 to 124 | CCCCC(Cc1ccc(OCCNC(=O)c2ccc(-c3ccc(C=O)cc3)cc2)cc1)C(=O)O (stereo not drawn)
168 | CC(C)CNC(=O)COc1ccn2nc(-c3ccccc3)c(-c3ccc(=O)n(C(C)C)n3)c2c1
